Data from PMC5059943, “Screening for peptides targeted to IL-7Rα for molecular imaging of rheumatoid arthritis synovium” (Arthritis Research & Therapy, 2016).
Where a SMILES comes first, the peptide text is derived from it. Bridges are numbered along the chain shown (N, C = ends). Where no end group is shown, it is not given here. The star is where a group is joined. Biotin = O=C1N[C@H]2[C@H](CS[C@H]2CCCCC(=O)*)N1; AEEA = NCCOCCOCC(=O)O

Legend:
IL-7Rα = target: T1, IL-7Rα (Homo sapiens, UniProt P16871); assay: ELISA of biotinylated peptides, K*d for IL-7Rα; format: binding; settings: synthesized peptides, IL-7Rα vs. FN
T1 construct: screened against the extracellular domain of IL-7Rα (E^21–D^239); Fc (chimera partner); purchased R&D Systems
T1 sequence (P16871 21-239): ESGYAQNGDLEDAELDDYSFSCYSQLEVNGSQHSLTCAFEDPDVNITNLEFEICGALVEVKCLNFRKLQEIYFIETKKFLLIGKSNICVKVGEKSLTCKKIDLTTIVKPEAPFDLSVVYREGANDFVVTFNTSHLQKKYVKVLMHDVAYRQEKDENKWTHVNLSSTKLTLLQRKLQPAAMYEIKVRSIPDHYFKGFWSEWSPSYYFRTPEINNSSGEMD
Description: (§1) Serial dilutions of biotinylated peptides were incubated with IL-7Rα or FN immobilized on ELISA plates as described above and blocked with protein-free blocking buffer (PFBB) (Perbioscience, Erembodegem, Belgium). Peptides bound to the target were detected with a goat anti-biotin antibody, followed by a peroxidase-conjugated anti-goat antibody made in horse (both from Vector Labconsult, Brussels, Belgium). […] The protocol is largely described in Additional file 1: Methods. […]
(§2) screening of the phage clones.
(§3) After 30 min of incubation, the […]
(§4) antibody as described above.
(§5) 2. Characterization of the selected IL-7Rα-binding peptides […]
(§6) by an incubation of 2h at 37°C. The wells were subsequently incubated (1h, room temperature) […]
(§7) 20 and 0.5% BSA (1h, room temperature). After each incubation step, the wells were washed with PBST-0.05% using a microplate washer. The staining reaction was developed with 0.1 […]
(§8) For this purpose, a range of IL-

[1] = tested on: STAT5 activation in ADC-stimulated Jurkat cells; assay: Phospho-STAT5 detection on ADC-stimulated Jurkat cells by immunofluorescence; format: cell-based, human
Description: The solutions were replaced every day after culture tube centrifugation and supernatant removal.
The signal intensity (SI) was measured on microphotographs corresponding to three to six different microscopic fields using the ImageJ software (National Institutes of Health, USA), and the relative ratio of fluorescent labeling (RRFL) was then calculated using the subsequent equation: RRFL=SIsample/Numberofcells/SInegativecontrols/Numberofcells×100 […]
stained with 0.05% 3,3'-diaminobenzidine (DAB) completed with 0.02% H2O2 in PBS. Finally, they were counterstained with Hemalun and Luxol fast blue and mounted in a permanent […]
To validate the binding of biotinylated P258 to human knee sections, the endogenous biotin was first blocked with a blocking kit (Invitrogen). The histologic sections were then incubated (4°C, overnight) with 1 µM of P258, followed by an incubation (1h, room […]
goat antibody made in horse (Vector Labconsult). The staining and counterstaining were performed as described above for anti-IL-7Rα monoclonal antibody.
2.5. Phospho-STAT5 detection on Jurkat cells and modulation by peptide P725 Jurkat cells were cultured and stimulated with ADC as described above. The experiment was performed in triplicate on stimulated and non -stimulated cells that were distributed in several culture tubes at a concentration of 10^6 cells/mL and treated (37°C in a humidified 5% CO2 incubator) with different compounds diluted in the culture medium as follows: (A) cells […]
for 30 min with 1 mM of P725; (C) cells pre-incubated for 30 min with 10 µg/mL of mo use […]
In the case of samples B and C, the […]
replaced every day after centrifuging the culture tubes and removing the precedent solutions by […]
At the end of the treatment period, the cells were immobilized on poly -L-lysine coated coverslips and fixed with 4% formaldehyde as described above. After three times rinsing with PBS, the cells were treated with 100% methanol for 10 min at -20°C. […] The primary antibodies bound to the cells were then detected by a co- […]

[2] = tested on: lysosome content of Jurkat cells; assay: Lysosome content of Jurkat cells (Lysotracker Red DND-99); format: cell-based
[3] = tested on: IL-7Rα expressed by ADC-stimulated Jurkat cells; assay: Binding of peptides to ADC-stimulated Jurkat cells and co-localization with IL-7Rα by immunofluorescence; format: cell-based, human
Description: The cells were stimulated with 0.4 μM of 5-Aza-2’-deoxycytidine (ADC, Sigma-Aldrich). The stimulated cells were immobilized on poly-L-lysine (Sigma-Aldrich) coated coverslips and fixed in a solution of 4 % formaldehyde (Sigma-Aldrich). […] Biotinylated peptides were detected with a goat anti-biotin antibody followed by fluorescein-conjugated rabbit anti-goat antibody (both from Vector Labconsult). Anti-IL-7Rα antibody was detected with Texas Red horse anti-mouse antibody (Vector Labconsult). Control samples consisted of ADC-stimulated or non-stimulated (NS) Jurkat cells incubated with low-affinity peptide binders (e.g., P255, P259), a mouse IgG isotype control, or with secondary antibodies after excluding the primary antibodies. […] The protocol is additionally described in Additional file 1: Methods.
to the target was detected as described above.
(Sigma-Aldrich) diluted in PBS.
(Vector Labconsult) diluted in phosphate buffer. They were then co-incubated (1h, room
camera (Leica Microsystems, Groot Bijgaarden, Belgium).

[4] = tested on: IL-7Rα expression of Jurkat cells; assay: IL-7Rα expression of ADC vs. NS Jurkat cells; format: cell-based; settings: 0.4 μM ADC, 4 days
Description: Jurkat cells were cultured in RPMI-1640 culture medium supplemented with 10 % newborn calf serum heat-inactivated and 1 % antibiotic-antimycotic (all from Invitrogen). The cells were stimulated with 0.4 μM of 5-Aza-2’-deoxycytidine (ADC, Sigma-Aldrich) [26]. The stimulated cells were immobilized on poly-L-lysine (Sigma-Aldrich) coated coverslips and fixed in a solution of 4 % formaldehyde (Sigma-Aldrich). […] Biotinylated peptides were detected with a goat anti-biotin antibody followed by fluorescein-conjugated rabbit anti-goat antibody (both from Vector Labconsult). Anti-IL-7Rα antibody was detected with Texas Red horse anti-mouse antibody (Vector Labconsult). […] The coverslips were mounted on slides with Vectashield mounting medium for fluorescence with 4',6-diamidino-2-phenylindole (DAPI) (Vector Labconsult) and observed on a DM2000 Leica microscope equipped with a DFC 425C camera (Leica Microsystems, Groot Bijgaarden, Belgium).
USPIO-P258 was co-localized with IL-7Rα expressed by Jurkat cells using an immunofluorescence protocol. […] The coverslips were finally mounted on slides with a mounting medium for fluorescence (Vector Labconsult). The RRFL was evaluated as described above.

FN = target: T2, FN (Homo sapiens, UniProt P02751); assay: ELISA of biotinylated peptides, K*d for FN; format: binding; settings: Fig. 1a, 2 h at 37 °C, read-out: Kd: FN, synthesized peptides
T2 construct: fragment 3 of recombinant human FN-1 (R&D Systems); purchased R&D Systems
Description: as §1, §2, §3, §4, §5, §6, §7, §8

low-affinity IL-7R = settings: read-out: Kd of IL-7 against low-affinity IL-7R, reported previously; cited from earlier work
Description: (§9) In addition, two antibodies were used to detect IL-7, which means that additional rinsing steps may contribute to extensive prot ...

high-affinity IL-7R = settings: read-out: Kd of IL-7 against high-affinity IL-7R, reported previously; cited from earlier work
Description: as §9

[5] = target: IL-7Rα (high-affinity receptor) (Homo sapiens) (UniProt P16871); settings: cited from earlier work
IL-7Rα 21-239 [6] = target: T3, IL-7Rα 21-239 (Homo sapiens, UniProt P16871); assay: ELISA
T3 chain: T1 sequence (P16871 21-239)

IL-7Rα 21-239 [7] = target: T3, IL-7Rα 21-239; assay: competition ELISA vs IL-7

T2 sequence (P02751 607-1265 limits assumed): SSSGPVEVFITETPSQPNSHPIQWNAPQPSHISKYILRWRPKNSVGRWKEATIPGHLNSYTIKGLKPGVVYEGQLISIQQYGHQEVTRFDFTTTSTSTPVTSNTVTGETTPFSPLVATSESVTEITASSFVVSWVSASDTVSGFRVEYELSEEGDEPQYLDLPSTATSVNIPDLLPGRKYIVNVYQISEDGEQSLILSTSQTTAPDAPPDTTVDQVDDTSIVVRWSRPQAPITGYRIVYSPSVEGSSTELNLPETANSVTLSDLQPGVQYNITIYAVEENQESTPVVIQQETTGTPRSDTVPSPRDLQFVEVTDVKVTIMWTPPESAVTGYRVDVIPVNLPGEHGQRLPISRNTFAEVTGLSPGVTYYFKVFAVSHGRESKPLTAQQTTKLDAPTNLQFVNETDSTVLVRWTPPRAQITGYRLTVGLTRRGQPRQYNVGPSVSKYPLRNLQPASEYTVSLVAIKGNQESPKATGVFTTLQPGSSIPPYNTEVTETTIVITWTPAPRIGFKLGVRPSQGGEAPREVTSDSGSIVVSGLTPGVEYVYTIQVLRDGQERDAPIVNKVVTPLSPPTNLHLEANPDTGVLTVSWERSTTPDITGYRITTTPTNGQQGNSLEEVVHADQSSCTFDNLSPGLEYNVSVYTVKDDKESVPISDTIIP

**Q.** For `C[C@@H]1NC(=O)[C@@H]2CCCN2C(=O)[C@H](CCCNC(=N)N)NC(=O)[C@H](CCC(N)=O)NC(=O)[C@@H]2CCCN2C(=O)[C@H](Cc2c[nH]cn2)NC(=O)[C@@H]2CCCN2C(=O)[C@@H](NC(=O)COCCOCCNC(=O)CCCC[C@@H]2SC[C@@H]3NC(=O)N[C@@H]32)CSSC[C@@H](C(N)=O)NC1=O` [Peptide P722] ({Biotin-AEEA}-CPHPQRPAC-NH2; disulfide 1-9; C-terminus assumed), which “Relative affinity for IL-7Rα and FN, peptides” value (IL-7Rα) is on record?
**A.** lost its affinity against IL-7Rα, displaying equivalent binding to FN

**Q.** What does the source list for `CC[C@H](C)[C@@H]1NC(=O)[C@H](CCCCN)NC(=O)[C@@H](NC(=O)COCCOCCNC(=O)CCCC[C@@H]2SC[C@@H]3NC(=O)N[C@@H]32)CSSC[C@@H](C(N)=O)NC(=O)[C@@H]2CCCN2C(=O)[C@H](CCSC)NC(=O)[C@H](CO)NC(=O)[C@H](CCCCN)NC(=O)[C@H](CCSC)NC1=O` [Peptide P725] ({Biotin-AEEA}-CKIMKSMPC-NH2; disulfide 1-9; C-terminus assumed)?
**A.** Inhibition of IL-7-induced STAT5 activation ([1]; P725 1 mM or antibody 10 µg/mL pre-incubated 30 min, then IL-7 6 ng/mL 48 h, ADC-stimulated Jurkat cells): 82%; Prevention of IL-7 binding and STAT-5 activation ([1]; P725 1 mM or antibody 10 µg/mL pre-incubated 30 min, then IL-7 6 ng/mL 48 h, p < 0.01): prevented IL-7 binding and STAT-5 activation; Lysosome content after treatment ([2]; with IL-7, P725 or anti-IL-7Rα antibody, p < 0.05): significantly diminished; Co-localization with IL-7Rα ([3]; biotinylated P258 (0.04 μM) or P725 (5 μM)): co-localizes with peptides; Decrease of anti-IL-7Rα monoclonal antibody staining intensity ([3]; biotinylated P725 (5 μM), overnight 4 °C): 57%

**Q.** Which “IL-7Rα expression in ADC cells vs. NS cells (fold)” value [4] does the source give for `Nc1ncn([C@H]2C[C@H](O)[C@@H](CO)O2)c(=O)n1` [ADC, 5-Aza-2’-deoxycytidine] here?
**A.** about six

**Q.** For ASACPPH-NH2 [Peptide P258], which Kd (FN) is on record?
**A.** 1800 nM

**Q.** With “IL-7: human recombinant IL-7 (R&D Systems; eBioscience)” as the molecule, how does the “Increase in phospho-STAT-5” value ([1]; IL-7 6 ng/mL, 48 h, vs. ADC-treated controls) read?
**A.** 424%

**Q.** What about the “Increase in lysosome content” value ([2]; IL-7 vs. ADC-treated controls) of the same molecule?
**A.** 398%

**Q.** What about the Kd (low-affinity IL-7R) of the same molecule?
**A.** 10 nM

**Q.** What about the Kd (high-affinity IL-7R) of the same molecule?
**A.** 0.2 nM

**Q.** Which “Relative affinity for IL-7Rα and FN, peptides” value (IL-7Rα) does the source give for `C[C@@H]1NC(=O)[C@@H](NC(=O)COCCOCCNC(=O)CCCC[C@@H]2SC[C@@H]3NC(=O)N[C@@H]32)CSSC[C@@H](C(N)=O)NC(=O)[C@H](Cc2c[nH]cn2)NC(=O)[C@@H]2CCCN2C(=O)[C@@H]2CCCN2C(=O)[C@H](CS)NC(=O)[C@H](C)NC(=O)[C@H](CO)NC1=O` [Peptide P726] ({Biotin-AEEA}-CASACPPHC-NH2; disulfide 1-9; C-terminus assumed) here?
**A.** highest specific binding to IL-7Rα

**Q.** With IL-7 (from UniProt P13232) as the molecule, how does the Kd [5] read?
**A.** 0.2 nM

B1: USPIO-P258 (peptide)
chain: ASACPPH-NH2
modifications: also: AEEA attached, end not given here, conjugated to PEGylated USPIO
**Q.** What does the source list for B1?
**A.** Kd (IL-7Rα 21-239 [6]): 4900 nM; IC50 (IL-7Rα 21-239 [7]): 6600 nM

B2: P725 (peptide)
chain: CKIMKSMPC
modifications: disulfide 1-9 (inferred); also: AEEA attached, end not given here
**Q.** With B2 as the molecule, how does the IC50 (IL-7Rα 21-239 [7]) read?
**A.** 16400 nM

B3: P725 (peptide)
chain: CKIMKSMPC
modifications: disulfide 1-9 (inferred); also: biotin-AEEA attached, end not given here
**Q.** Which Kd (IL-7Rα 21-239 [6]) does the source give for B3 here?
**A.** 1100 nM

B4: P258 (peptide)
chain: ASACPPH
modifications: also: biotin-AEEA attached, end not given here
**Q.** With B4 as the molecule, how does the Kd (IL-7Rα 21-239 [6]) read?
**A.** 600 nM
